According to patent publication US20200108069A1, “Treatment of Fibrotic Conditions” (ANGLIA RUSKIN UNIVERSITY HIGHER EDUCATION CORPORATION, priority 2018, published 2020):
Where two headings read alike, the source gives them in different places.

What was measured:
[1] = tested on: fibroblasts isolated from human tunica albuginea (TA); TGF-β1-induced myofibroblast transformation; assay: In Cell ELISA (ICE) phenotypic screening assay of TGF-β1-induced myofibroblast transformation (α-SMA/DNA staining); assay type: cell-based; details: for IC50: co-incubation with 10 ng/ml TGF-β1 for 72 hours, α-SMA/DNA staining ratio, read-out: IC50, inhibition of TGF-β1-induced myofibroblasts transformation
Excerpt: Tunica albuginea tissue samples were collected from patients undergoing surgery at University College London Hospital (UCLH), London, UK for penile cancer or PD. All patients gave fully informed written consent to the study. The study was approved by independent research ethics committees (NRES Committee East of England 12/EE/0170 and NRES Committee North of Scotland 15/NS/0051). PD plaque tissue was obtained from patients with chronic PD undergoing a Lue procedure (plaque incision and grafting). Plaque tissue would have otherwise been discarded. Non-plaque TA was obtained from PD patients undergoing a Nesbit procedure whereby non-fibrotic TA tissue was excised from the opposite side of the plaque. TA tissue samples from patients with penile cancer were taken from the proximal side away from the tumour, with the tumour showing negative margins on histological examination.
Tissue samples were carefully dissected to ensure that all cavernosal tissue was removed from the tunica albuginea (TA). To establish fibroblast cultures, TA fragments were seeded in 6-well tissue culture plates (Nunc, Fisher Scientific, UK) as described previously16. The tissue pieces were incubated in DMEM-F12 (GIBCO, Invitrogen, UK) containing 10% FCS (Fisher Scientific, UK) and 1% penicillin-streptomycin (GIBCO, Invitrogen, UK) at 37° C., 5% CO2 for 5-7 days. Tissue fragments were carefully removed using forceps upon outgrowth of cells. Passages 2 to 4 were used for the rest of the experiments.
Cells were seeded onto 96 well optical flat bottom black microplates (Nunc, Fisher Scientific, UK) at 5×10^3 cells per well. After overnight attachment they were incubated with or without 10 ng/ml TGF-β1 for 72 hours. The cells were then fixed using 4% paraformaldehyde, and blocked with 10% donkey serum and 0.1% Triton X-100 in PBS. The cells were then incubated with anti-α-SMA antibody (1:3,000; Sigma Aldrich, UK) for 2 h. Afterwards cells were incubated with donkey anti-mouse secondary antibody conjugated to an infrared dye which emits at 800 nm (1:500; IRdye 800CW; Li-Cor, UK) and a nuclear counterstain at that emits at 700 nm (1:1,000; DRAQS, Biostatus, UK) for 1 h. The plate was scanned using an infrared imaging system (Odyssey CLx imager, LI-COR, UK) at both the 700 nm and 800 nm wavelengths.
We have isolated primary fibroblasts from the plaque and non-plaque TA of patients with PD. We also isolated primary fibroblasts from TA of patients with penile cancer as non-fibrotic controls.

[2] = tested on: TGF-β1-induced myofibroblast collagen contraction, TA-derived fibroblasts; assay: Collagen gel contraction assay (fibroblast populated collagen lattices); assay type: cell-based, human; details: 10 ng/ml TGF-β1; lattices released after 72 h, contraction observed for 8 h
Experimental: Images were analysed using ImageJ software by measuring the surface area of the contracting lattice. Contraction was calculated as percentage of the surface of the unreleased lattice. Data is shown as percentage of maximum contraction of vehicle control. The two classes of drugs were then tested in functional assays. Firstly, we tested their efficacy in inhibiting collagen gel contraction as a measure of myofibroblast contractility; a characteristic function of myofibroblasts, which separates them from fibroblasts. […] Secondly, we tested the drugs' efficacy in inhibiting ECM protein production, which is again one of the critical characteristic functions of myofibroblasts. […] FIG. 4).

[3] = tested on: TGF-β1 injection into the rat TA (animal model for PD), penile fibrosis; assay: Animal model for PD: molecular and histological analysis of penile tissue (qPCR, Western blot, immunohistochemistry); assay type: in vivo, Male Sprague-Dawley rats
Excerpt: The animal model for PD was first described by […] Lue^18 and modified by Bivalacqua and Hellstrom^19. Male Sprague-Dawley rats (10-12 weeks old) were housed in a regulated environment with a 12-hour light/dark cycle in a standard experimental laboratory. The animals had free access to food and water ad libitum. Fifty male Sprague-Dawley rats were divided into 5 groups: A: sham (injection of vehicle citrate buffer), B: […] Treatment was initiated at the day after injury and continued for 5 weeks followed by a 48 hours wash-out period. The High-Capacity cDNA Reverse Transcription Kit (Applied Biosystems) was used according to the manufacturer's instructions to transcribe RNA to cDNA. One μg in 10 μl were added to 10 μl of the master mix for reverse transcription for a total reaction volume of 20 μl. After reverse transcription the cDNA was diluted 1:10 for qPCR. The Applied BiosystemsTM TaqManTM Fast Advanced Master Mix was used for qPCR. Gene specific primer pairs for GAPDH, beta-actin, alpha smooth muscle actin, elastin, and collagens I, III, and V were purchased from Applied Biosystems. […] Data was analysed using the 2-ΔΔCt method for relative quantifications. […] Statistical significance, unless otherwise stated, was calculated using one or two-way ANOVA and Student's t-test for unpaired means (two-sided). […]

[4] = tested on: TGF-β1 injection into the rat TA (animal model for PD); assay: Animal model for PD: assessment of erectile function (intracavernous pressure, ICP); assay type: in vivo, Male Sprague-Dawley rats; details: tamoxifen 5 mg/kg/day i.p., vardenafil 1.5 mg/kg/day drinking water, 5 weeks
[5] = tested on: TGF-β1-induced myofibroblast ECM protein production, cells derived from TA tissue; assay: ECM production assay; assay type: cell-based; details: Homo sapiens, 168 h, 10 ng/ml TGF-β1 for 7 days
Experimental: Cells were seeded onto 96 well optical flat bottom black microplates (Nunc, Fisher Scientific, UK) at 5×10^3 cells per well. After overnight attachment, they were stimulated with or without 10 ng/ml TGF-β1 and/or compounds for 7 days. DRAQS in PBS (1:1,000) was added and cells were incubated for 5 min at 37° C., 5% CO2 before scanning the plate to obtain nuclear staining. […] Afterwards ECM was stained either with Coomassie Blue (total ECM) overnight at 4° C. or with primary antibodies (collagen I, abcam; collagen III, Millipore; collagen V, abcam: fibronectin, Millipore) at 1:1000 for 1 h on a shaker, followed by incubation with secondary antibody and scanning the plate using an infrared imaging system (Odyssey CLx imager, LI-COR, UK) at both the 700 nm and 800 nm wavelengths. Results were normalized to the cell number before lysis.

[6] = Homo sapiens, Fibroblast, read-out: Percentage of inhibition of TGF-β1 induced myofibroblast transformation, Tamoxifen only, 10 ng/ml TGF-β1, 72 hours
[7] = Homo sapiens, Fibroblast, 10 ng/ml TGF-β1, 72 hours, read-out: Percentage of inhibition of TGF-β1 induced myofibroblast transformation, Vardenafil only

SMILES: Cc1cccc(-c2[nH]c(C(C)(C)C)nc2-c2ccc3c(c2)OCO3)n1 [SB505124]
- IC50 [1]: 0.6 µM

SMILES: O=C(c1ccc(OCCN2CCCCC2)cc1)c1c(-c2ccc(O)cc2)sc2cc(O)ccc12 [raloxifene]
- IC50 [1]: 7 µM

SMILES: CCCc1nn(C)c2c(=O)[nH]c(-c3cc(S(=O)(=O)N4CCN(C)CC4)ccc3OCC)nc12 [sildenafil]
- IC50 ([1]; Homo sapiens, Fibroblast): 15 µM

SMILES: CN1CC(=O)N2[C@H](c3ccc4c(c3)OCO4)c3[nH]c4ccccc4c3C[C@@H]2C1=O [tadalafil]
- IC50 ([1]; Homo sapiens, Fibroblast): 3.5 µM

SMILES: CC/C(=C(\c1ccccc1)c1ccc(OCCN(C)C)cc1)c1ccccc1 [tamoxifen]
- Percentage of inhibition of TGF-β1 induced myofibroblast transformation, Tamoxifen only ([1]; 100 μM, 10 ng/ml TGF-β1, 72 hours): cell death
- inhibition at 0.3 µM [1, 6]: 10 ± 3%
- inhibition at 1 µM [1, 6]: 10 ± 2%
- inhibition at 3 µM [1, 6]: 10 ± 3%
- inhibition at 10 µM [1, 6]: 25 ± 3%
- concentration at which TGF-β1-induced contraction of collagen was inhibited [2]: 1 µM
- TGF-β1-induced upregulation of collagen expression (collagens I, III, V mRNA) in penile tissue ([3]; 5 weeks treatment, qPCR): prevented
- penile fibrosis in an animal model for PD ([3]; FIG. 5): ameliorate penile fibrosis
- TGF-β1-induced decrease in erectile function (ICP) by 55% [4]: prevented

SMILES: CCCc1nc(C)c2c(=O)[nH]c(-c3cc(S(=O)(=O)N4CCN(CC)CC4)ccc3OCC)nn12 [vardenafil]
- inhibition at 0.3 µM [1, 7]: 3 ± 3%
- inhibition at 1 µM [1, 7]: 10 ± 1%
- inhibition at 3 µM [1, 7]: 8 ± 2%
- inhibition at 10 µM [1, 7]: 17 ± 2%
- inhibition at 30 µM ([1]; Homo sapiens, Fibroblast, 30 μM, 10 ng/ml TGF-β1, 72 hours, read-out: Percentage of inhibition of TGF-β1 induced myofibroblast transformation, Vardenafil only): 25 ± 1%
- inhibition at 100 µM ([1]; Homo sapiens, Fibroblast, 100 μM, 10 ng/ml TGF-β1, 72 hours, read-out: Percentage of inhibition of TGF-β1 induced myofibroblast transformation, Vardenafil only): 48 ± 1%
- IC50 ([1]; Homo sapiens, Fibroblast): 30 µM
- concentration at which TGF-β1-induced contraction of collagen was inhibited [2]: 10 µM
- IC50 ([5]; read-out: IC50, TGF-β1-induced ECM protein production: collagen I): 23 µM
- IC50 ([5]; read-out: IC50, TGF-β1-induced ECM protein production: collagen III): 17 µM
- IC50 ([5]; read-out: IC50, TGF-β1-induced ECM protein production: collagen V): 23 µM
- IC50 ([5]; read-out: IC50, TGF-β1-induced ECM protein production: fibronectin): 44 µM
